Source: patent US20210324442A1, “In vitro Transcription-Translation Metabolic Networks to Measure Quantity or Activity of Enzymes” (priority 2020, published 2021)

Columns and labels:
[1] = biological target: glutamine synthetase (GLNS) (Escherichia coli, UniProt P0A9C5)
Description: Example 2: Cell-free protein synthesis reactions were formulated in 96-well plates with the following specifications: 25% (v/v) cell extract, 12 nM pY71-sfGFP^37, 10-20 mM magnesium glutamate (concentration adjusted for optimal protein yield), 1 mM 1,4-diaminobutane, 1.5 mM spermidine, 40 mM phosphoenolpyruvate, 10 mM ammonium glutamate, 175 mM potassium glutamate, 2.7 mM potassium oxalate, 0.33 mM nicotinamide adenine dinucleotide, 0.27 mM coenzyme A, 1.2 mM ATP, 0.86 mM CTP, 0.86 mM GTP, 0.86 mM UTP, 0.17 mM folinic acid, 6 mM aspartate, 6 mM asparagine, and 2 mM of the 16 remaining proteinogenic amino acids. Gln was omitted from Gln-sensing reactions. For reactions containing human serum (Gemini Bio Products, Sacramento, Calif.), murine RNAse inhibitor (New England BioLabs, Ipswich MA) was added to a final concentration of 0.8 U/μL CFPS. Reactions were incubated at 37° C. in a BioTek SynergyMX plate reader, shaken for 30 seconds, and analyzed for fluorescence every 4-6 minutes at 480/510 nm excitation/emission wavelengths. Results were obtained after 60 minutes. Assay signal strength was calculated as the ratio of GFP RFU at saturating Gln concentrations to the GFP RFU at 0 μM Gln.

[2] = biological target: T1, phosphoenolpyruvate carboxylase (Escherichia coli, UniProt P00864); assay: CFPS yield with raised initial Asp; type: biochemical, E. coli; details: 12 mM Asp compared with conventional 2 mM Asp, one-hour reaction
T1 construct: many enzymes which likely retain activity in the lysate-based CFPS reactions consume precious ATP superfluously; endogenous in cells; host or cells: E. coli BL21 Star (DE3) cell extract (lysate)
T1 sequence (P00864 whole entry): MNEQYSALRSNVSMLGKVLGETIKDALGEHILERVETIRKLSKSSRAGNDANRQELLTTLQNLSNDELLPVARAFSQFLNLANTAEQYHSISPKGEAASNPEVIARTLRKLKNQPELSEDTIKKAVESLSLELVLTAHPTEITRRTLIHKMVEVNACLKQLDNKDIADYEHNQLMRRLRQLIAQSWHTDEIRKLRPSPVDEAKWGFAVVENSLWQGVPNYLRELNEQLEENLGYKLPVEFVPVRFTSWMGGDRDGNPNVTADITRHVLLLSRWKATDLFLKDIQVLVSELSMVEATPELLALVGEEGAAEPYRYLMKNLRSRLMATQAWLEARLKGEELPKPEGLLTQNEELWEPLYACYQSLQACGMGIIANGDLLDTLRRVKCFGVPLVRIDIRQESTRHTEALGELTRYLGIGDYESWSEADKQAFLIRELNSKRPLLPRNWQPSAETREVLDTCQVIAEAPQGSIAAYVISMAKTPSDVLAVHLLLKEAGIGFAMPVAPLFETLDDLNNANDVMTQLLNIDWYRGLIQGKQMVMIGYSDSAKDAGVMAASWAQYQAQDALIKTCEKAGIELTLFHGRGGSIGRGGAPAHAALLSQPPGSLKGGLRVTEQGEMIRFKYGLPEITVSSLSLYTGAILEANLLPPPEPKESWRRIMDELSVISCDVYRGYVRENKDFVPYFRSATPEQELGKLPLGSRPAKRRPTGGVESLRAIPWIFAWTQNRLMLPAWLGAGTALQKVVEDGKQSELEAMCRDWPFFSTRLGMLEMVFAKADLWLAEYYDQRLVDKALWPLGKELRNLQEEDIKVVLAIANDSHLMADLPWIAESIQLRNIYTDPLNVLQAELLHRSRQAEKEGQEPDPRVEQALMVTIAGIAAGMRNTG
Description: The metabolic engineering approach presented in this work may also be useful for modulating protein expression yield or other desired products from cell-free reactions. Indeed, many enzymes which likely retain activity in the lysate-based CFPS reactions consume precious ATP superfluously. For example, GLNS, which is inhibited in this work, consumes ATP in the process of synthesizing Gln. […] Indeed, during the process of completing the work described herein, we learned that phosphoenolpyruvate carboxylase circumvents the production of ATP from PEP, and that its inhibition might improve CFPS performance. Accordingly, we identified Asp as an inhibitor of this enzyme and observed that CFPS initiated with 12 mM Asp compared with the conventional 2 mM Asp increased CFPS yield by 38% over a one-hour reaction (FIG. 8).
(§1) Gln was omitted from Gln-sensing reactions. […] Results were obtained after 60 minutes.

E. coli ASNase = biological target: T2, E. coli ASNase (Escherichia coli, UniProt P00805); assay: CFPS reactions producing GFP in the presence of E. coli ASNase and ASP; type: biochemical; details: 1.54 IU/mL ASNase + 6.5 mM ASP vs 1.54 IU/mL ASNase
T2 construct: purchased
T2 sequence (P00805 23-348): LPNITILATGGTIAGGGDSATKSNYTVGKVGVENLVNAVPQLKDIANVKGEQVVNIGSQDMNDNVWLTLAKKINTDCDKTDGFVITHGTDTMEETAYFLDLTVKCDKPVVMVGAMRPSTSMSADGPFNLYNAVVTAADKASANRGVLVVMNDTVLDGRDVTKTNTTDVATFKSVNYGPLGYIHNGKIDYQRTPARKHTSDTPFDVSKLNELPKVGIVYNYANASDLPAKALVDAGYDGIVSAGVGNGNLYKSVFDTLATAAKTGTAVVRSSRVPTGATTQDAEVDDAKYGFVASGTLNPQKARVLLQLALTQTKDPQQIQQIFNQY
Description: In FIG. 8, CFPS reactions producing GFP in the presence of E. coli ASNase and ASP. Reported conditions include 0 IU/mL ASNase (no ASNase added), 1.54 IU/mL ASNase, and 1.54 IU/mL ASNase+6.5 mM ASP. […] No plasmid (NP) control tests for the impact of CFPS machinery and possible reaction products if added to a CFPS reaction producing GFP. As such, for the NP control 5 μL of a cellfree reaction product (where no plasmid was added such that no protein expression was templated) was added to a second CFPS reaction producing GFP. […] Error bars represent one standard deviation for n=2 CFPS reactions.

[3] = tested on: E. coli-based CFPS reactions producing GFP; assay: CFPS Gln sensor assay, aqueous samples (GFP reporter); type: biochemical; details: 70 mM MSO, Gln omitted as reagent, 1 hr, n=2, read-out: EC50 value (Hill equation fit of GFP response)
Description: Reactions omitted Gln as a reagent but included 70 mM MSO. Aqueous samples of known Gln concentrations were added to the CFPS reaction. On the graph, the x-axis represents the final concentration of Gln in the CFPS reaction (ranging from 0 to 2400 μM). Each data point represents a CFPS reaction after 1 hr with n=2 at each Gln concentration. […] The inset plots linear regression of the data. The solid blue line represents the fit, solid red bands represent the 95% confidence of fit, and dashed black bands represent the 95% confidence range for a single-point prediction.
Example 1: E. coli cell extract containing bacteriophage T7 RNA polymerase was prepared as previously described. Briefly, 5 mL overnight culture of BL21 Star™ (DE3) was added to 100 mL 2xYT. When OD600 reached ˜2.0, culture was transferred to 900 mL 2xYT. 1 L cultures were induced with 1 mM IPTG at OD600 0.4-0.6 and harvested at OD600 ˜2.5. All bacterial cultures were incubated at 37° C. and 280 RPM. Cells were homogenized with three passes at 21000 psi using the EmulsiflexB15 French press homogenizer (Avestin, Ottawa, Calif.) and centrifuged at 12000 RCF for 10 min. Clarified lysate was then incubated at 37° C. and 280 RPM for 30 min. Cell extract was dialyzed using 14 kDa MW cut-off cellulose membrane tubing (MilliporeSigma, Billerica, Mass.) for 4 hr at 4° C. immediately following incubation at 37° C. […]

[4] = tested on: E. coli-based CFPS reactions producing GFP; assay: CFPS Gln sensor assay in the presence of human serum; type: biochemical; details: 70 mM MSO, RNAse inhibitor, 14% (v/v) human serum, 1 hr, n=2; read-out: EC50 value (Hill equation fit of GFP response)
Description: Reactions omitted Gln as a reagent but contained 70 mM MSO, RNAse inhibitor, and 14% (v/v) human serum with increasing Gln concentrations. The x-axis represents the corresponding Gln concentration in the CFPS reaction. Each data point represents a CFPS reaction after 1 hr with n=2 at each CFPS Gln concentration. […] Solid blue line represents the fit, solid red bands represent the 95% confidence of fit, and dashed black bands represent the 95% confidence range for a single-point prediction.
Example 1: E. coli cell extract containing bacteriophage T7 RNA polymerase was prepared as previously described. Briefly, 5 mL overnight culture of BL21 Star™ (DE3) was added to 100 mL 2xYT. When OD600 reached ˜2.0, culture was transferred to 900 mL 2xYT. 1 L cultures were induced with 1 mM IPTG at OD600 0.4-0.6 and harvested at OD600 ˜2.5. All bacterial cultures were incubated at 37° C. and 280 RPM. Cells were homogenized with three passes at 21000 psi using the EmulsiflexB15 French press homogenizer (Avestin, Ottawa, Calif.) and centrifuged at 12000 RCF for 10 min. Clarified lysate was then incubated at 37° C. and 280 RPM for 30 min. Cell extract was dialyzed using 14 kDa MW cut-off cellulose membrane tubing (MilliporeSigma, Billerica, Mass.) for 4 hr at 4° C. immediately following incubation at 37° C.
as §1

Chain of glutamine synthetase (GLNS) (P0A9C5 2-469 limits assumed): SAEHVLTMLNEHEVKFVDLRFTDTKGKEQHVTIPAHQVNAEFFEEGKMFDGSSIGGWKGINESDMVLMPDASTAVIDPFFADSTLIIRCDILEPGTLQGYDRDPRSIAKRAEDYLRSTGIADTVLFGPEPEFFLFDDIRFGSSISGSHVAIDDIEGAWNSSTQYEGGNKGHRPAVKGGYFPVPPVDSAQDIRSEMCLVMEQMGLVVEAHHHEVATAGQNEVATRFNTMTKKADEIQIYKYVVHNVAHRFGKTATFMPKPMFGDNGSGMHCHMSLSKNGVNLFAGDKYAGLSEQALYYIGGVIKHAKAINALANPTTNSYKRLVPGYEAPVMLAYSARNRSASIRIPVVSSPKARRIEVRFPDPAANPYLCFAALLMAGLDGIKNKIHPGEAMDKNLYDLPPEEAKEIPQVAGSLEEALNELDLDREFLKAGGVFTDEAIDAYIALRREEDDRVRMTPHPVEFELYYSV

## CS(=N)(=O)CC[C@H](N)C(=O)O (stereo partly drawn) [MSO, Methionine sulfoximine]
[1]; concentrations up to 80 mM in the presence of 2 mM Gln
  effect on CFPS expression yield: little effect
[1]; increased linearly with increasing MSO concentration up to 70 μM
  signal-to-noise ratio of the assay: ~10

## N[C@@H](CC(=O)O)C(=O)O [Asp, L-aspartate]
[2]
  increase of CFPS yield: 38%
E. coli ASNase
  effect of ASP supplementation on ASNase activity: inhibitory effect

## NC(=O)CC[C@H](N)C(=O)O [Gln, L-glutamine]
[3]
  EC50: 154 µM
[4]
  EC50: 100 µM
